Holding throughout (assay type): cell-based
Assay [1] has as its target T1, PKC α (Homo sapiens, UniProt P17252). The experiment in a line: PKC α activation in SH-SY5Y cells (cytosol/membrane fractions, isoform-specific antibodies). Particulars: 0.27 nM, 5-60 min (FIG. 3). On the procedure: Three independent experiments were performed for each sample.
(§1) The homogenate was centrifuged at 100,000×g for 15 min at 4° C. to obtain the cytosolic fraction (supernatant) and membrane (pellet). […] The separated protein was then transferred to a nitrocellulose membrane.

In assay [2] the target is T2, PKC ε (Homo sapiens, UniProt Q02156).
T2 sequence (Q02156 1-737): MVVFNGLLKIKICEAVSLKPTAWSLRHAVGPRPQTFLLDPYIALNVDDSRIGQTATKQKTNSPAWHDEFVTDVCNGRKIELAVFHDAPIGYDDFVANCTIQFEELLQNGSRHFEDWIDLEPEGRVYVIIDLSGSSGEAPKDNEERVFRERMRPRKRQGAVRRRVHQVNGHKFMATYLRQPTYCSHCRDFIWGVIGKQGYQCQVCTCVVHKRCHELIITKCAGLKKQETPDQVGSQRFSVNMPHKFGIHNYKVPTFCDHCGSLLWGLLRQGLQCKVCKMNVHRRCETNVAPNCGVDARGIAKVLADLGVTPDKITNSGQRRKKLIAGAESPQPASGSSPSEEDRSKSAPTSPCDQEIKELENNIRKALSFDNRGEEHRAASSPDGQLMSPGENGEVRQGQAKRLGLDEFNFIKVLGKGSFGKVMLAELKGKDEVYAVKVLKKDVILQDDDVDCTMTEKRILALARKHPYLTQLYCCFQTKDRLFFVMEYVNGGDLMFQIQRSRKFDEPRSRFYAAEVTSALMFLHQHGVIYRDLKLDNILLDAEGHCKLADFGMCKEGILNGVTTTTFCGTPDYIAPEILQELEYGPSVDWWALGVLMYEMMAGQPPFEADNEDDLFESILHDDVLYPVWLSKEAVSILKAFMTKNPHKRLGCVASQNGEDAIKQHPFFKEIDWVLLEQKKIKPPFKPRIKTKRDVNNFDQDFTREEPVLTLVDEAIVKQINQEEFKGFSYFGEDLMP
The assay is described as follows: PKC ε activation in SH-SY5Y cells (cytosol/membrane fractions, isoform-specific antibodies). Conditions: 0.27 nM, 5-60 min (FIG. 3). On the procedure:
PKC isozyme activation by bryostatin-1 at 0.27 nM in SH-SY5Y cells was evaluated. SH-SY5Y cells are human-derived cell line and are often used as in vitro models of neuronal function and differentiation. Cells were treated with bryostatin-1 (0.27 nM) for 0, 5, 15, 30 and 60 min. Samples were fractionated into cytosol and membrane fractions and analyzed with PKC isoform-specific antibodies. Three independent experiments were performed for each sample.
Cell culture and treatments: Human SH-SY5Y neuroblastoma cells (ATCC) were cultured in 45% F12K, 45% DMEM and 10% FBS.
Cell lysis and Western blot analysis: Cells were harvested in homogenizing buffer (HB) containing 10 mM Tris-Cl (pH 7.4), 1 mM PMSF (phenylmethylsulfonylfluoride), 1 mM EGTA, 1 mM EDTA, 50 mM NaF and 20 μM leupeptin, and were lysed by sonication. The homogenate was centrifuged at 100,000×g for 15 min at 4° C. to obtain the cytosolic fraction (supernatant) and membrane (pellet). […] Protein concentration was measured using the Coomassie Plus (Bradford) Protein Assay kit (Pierce, Rockford, Ill., USA). Following quantification, 20 μg of protein from each sample was subjected to SDS-PAGE analysis in a 4-20% gradient Tris-Glycine polyacrylamide gel (Invitrogen, Carlsbad, Calif., USA). […] The blot was imaged in a ImageQuant RT-ECL (GE Life Sciences, Piscataway, N.J.) and densitometric quantification was performed using IMAL software. […]

The target of assay [3] is T1, PKC α. The experiment in a line: PKC α activation (membrane translocation, immunoblot) in primary human neurons. On the set-up: host or cells: primary human cortical neurons. The protocol:
as §1
On the technique in general: Immunoblotting shows a protein as a band on a membrane.

The target of assay [4] is T2, PKC ε. The assay is described as follows: PKC ε activation (membrane translocation, immunoblot) in primary human neurons. On the set-up: host or cells: primary human cortical neurons. On the procedure:
PKC isozyme activation by bryostatin-1 at various concentrations in primary human neurons was evaluated. One month old primary human neurons were treated with 0 nM, 0.060 nM, 0.125 nM, 0.25 nM, 0.5 nM and 1.0 nM bryostatin 1 for 24 hr. Neurons were separated into soluble and membrane fractions and immunoblotted against PKC α and PKC ε. PKC activation was measured as the percentage of total protein in the membrane and reported as percentage of control. PKC staining levels were measured densitometrically. Data are represented as mean±SE of three independent experiments (Students t-test, *P<0.05 and **P<0.005).
PKC isozyme activation by bryostatin-1 at 0.25 nM in primary human neurons was evaluated. One month old primary human neurons were treated with ethanol (C), bryostatin 1 (0.25 nM) for 1 hr, 4 hr and 24 hr. Neurons were separated into soluble (S) and membrane (P) fractions and immunoblotted against PKC α, PKC ε and PKC δ. PKC activation was measured as the percentage of total protein in the membrane and reported as percentage of control. PKC staining levels were measured densitometrically.
Culture of primary human cortical neurons: Human primary neurons (ScienCell Research Laboratories, Carlsbad, Calif., USA) were plated on poly-L-lysine coated plates and were maintained in neuronal medium (ScienCell Research Laboratories, Carlsbad, Calif., USA) supplemented with the neuronal growth supplement (NGS, ScienCell Research Laboratories, Carlsbad, Calif., USA). For maintenance of neurons, half of the media was changed every 3 days. Fresh activators were added with every media change.
Cell lysis and Western blot analysis: Cells were harvested in homogenizing buffer (HB) containing 10 mM Tris-Cl (pH 7.4), 1 mM PMSF (phenylmethylsulfonylfluoride), 1 mM EGTA, 1 mM EDTA, 50 mM NaF and 20 μM leupeptin, and were lysed by sonication. The homogenate was centrifuged at 100,000×g for 15 min at 4° C. to obtain the cytosolic fraction (supernatant) and membrane (pellet). The pellet was resuspended in the HB by sonication. Protein concentration was measured using the Coomassie Plus (Bradford) Protein Assay kit (Pierce, Rockford, Ill., USA). Following quantification, 20 μg of protein from each sample was subjected to SDS-PAGE analysis in a 4-20% gradient Tris-Glycine polyacrylamide gel (Invitrogen, Carlsbad, Calif., USA). The separated protein was then transferred to a nitrocellulose membrane. The membrane was blocked with BSA and incubated with primary antibody overnight at 4° C. […] The blot was imaged in a ImageQuant RT-ECL (GE Life Sciences, Piscataway, N.J.) and densitometric quantification was performed using IMAL software. For quantifying expression of a protein, the densitometric value for the protein of interest was normalized against beta-actin (loading control).

Take `CCC/C=C/C=C/C(=O)O[C@H]1/C(=C/C(=O)OC)C[C@H]2C[C@H]([C@@H](C)O)OC(=O)C[C@H](O)C[C@@H]3C[C@H](OC(C)=O)C(C)(C)[C@](O)(C[C@@H]4C/C(=C/C(=O)OC)C[C@H](/C=C/C(C)(C)[C@]1(O)O2)O4)O3` [bryostatin-1]: the “PKC α activation” value in assay [1] is “activated both PKC ε and PKC α”. Also, the “PKC ε activation” value in assay [2] is “activated both PKC ε and PKC α”. The “PKC α activation (percentage of total protein in the membrane, percentage of control)” value in assay [3] (0.060-1.0 nM, 24 hr (FIG. 1)) is “activated both PKC ε and PKC α”. Besides, the “PKC α activation at about 1 nM” value in assay [3] (about 1 nM, 24 hr) was “potent activation of both PKC ε and PKC α”. For the same compound, in assay [4] (0.25 nM, 1 hr, 4 hr and 24 hr (FIG. 2B)), the “PKC-ε activation, time course” value was “induced PKC-ε activation”. In assay [4] (0.060-1.0 nM, 24 hr (FIG. 1)), the “PKC ε activation (percentage of total protein in the membrane, percentage of control)” value was “activated both PKC ε and PKC α”. Besides, in assay [4] (about 1 nM, 24 hr), the “PKC ε activation at about 1 nM” value was “potent activation of both PKC ε and PKC α”. The “PKC ε activation at low concentrations” value in assay [4] (low concentrations, 24 hr) was “potent PKC ε activation”.

These data come from patent US10137106B2, “Compositions and methods to treat niemann-pick disease” (Blanchette Rockefeller Neurosciences Institute, Inc., priority 2014, dated 2018).
